# Results: patent US11440923B2, “Substituted macrocyclic indole derivatives” (Bayer Aktiengesellschaft, priority 2017, dated 2022)
# Like-named read-outs stand apart in the source and are kept apart here.
# What was measured:
# HMC-1-8 cells = assay: Antiproliferation assay HMC-1-8 (Assay 7); type: cell-based
# Outline: (§1)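 Using a parallel time-zero plate as baseline, the anti-proliferative effect was assessed by CellTiter-Glo after 72 h compound incubation at 37 °C. IC50 was computed from day 0 and DMSO control values.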
# MCL-1 = MCL-1 (Homo sapiens (Human), UniProt Q07820, K194A/K197A/R201A); assay: Protein-protein interaction assay MCL-1/Noxa BH3 peptide (MCL-1 assay, TR-FRET); type: binding
# Experimental: The dose-dependent inhibition by the compounds described in this invention of the interaction between MCL-1 and the BH3 domain of Noxa (both human) was determined using a steady state binding competition assay with time-resolved fluorescence energy transfer (TR-FRET) readout. For that purpose MCL-1 (amino acids 173-321, N-terminal fused to Maltose Binding Protein (MBP) SEQ ID 1)) and a synthetic Noxa BH3-derived peptide of sequence Biotin-PEG2-PEG2-PAELEVE-Nva-[…]-amide (SEQ ID 2) served as protein receptor and tracer ligand respectively. The MBP-MCL-1 was purchased from Beryllium (Bedford, Mass., USA). The expression and purification of this protein construct has been described elsewhere (DOI:10.1371/journal.pone.0125010). The Noxa BH3-derived peptide can be obtained from e.g. Biosyntan (Berlin, Germany).
# For that, 100-fold concentrated DMSO solutions were prepared by serial dilutions (1:3.4) of a 2 mM stock solution in a clear, 384-well microtiter plate (Greiner Bio-One, Frickenhausen, Germany). From there, 50 nl were transferred in a dark test plate (Greiner Bio-One, Frickenhausen, Germany). The assay was initiated by addition of 2 μL of a 2,5-fold concentrated MBP-MCL-1 solution (usually for a 1 nM end concentration in 5 μL reaction volume) in aqueous assay buffer [50 mM Tris/HCl pH 7, 100 mM sodium chloride (NaCl), 50 mM potassium fluoride (KF), 0.005% Tween-20, 2 mM DTT, 0.1% bovine gamma globulin (BGG)] to the compounds in the assay plate. This was followed by a 10-minute incubation step at 22° C. for pre-equilibration of the putative complex between MBP-MCL-1 and the compounds.
# The mixture was incubated in the dark for one hour at 22° C. and then overnight at 4° C. The formation of MCL-1/Noxa complexes was determined by measuring the resonance energy transfer of the anti-MBP-Eu-cryptate antibody to the streptavidin-XL665 present in the reaction.
# For that purpose, the fluorescence emission at 620 nm and 665 nm after excitation at 330-350 nm was measured in a TR-FRET measuring instrument, for instance a Rubystar or a Pherastar (both from BMG Lab Technologies, Offenburg, Germany) or a Viewlux (Perkin-Elmer). The ratio of the emission at 665 nm and at 622 nm was used as indicator of the amount of MCL-1/NOXA complexes present.
# The resulting data (ratio) were normalized, taking 0% inhibition as the mean value of control measurements (usually 32 data points) where all reagents were included. In this case 50 nl DMSO were used instead of compounds. […] IC50 values were determined by regression analysis based on a 4 parameter equation (minimum, maximum, IC50, Hill; Y=Max+(Min−Max)/(1+(X/IC50)^Hill) using the Screener Software (Genedata).
# SUDHL10 cells [1] = assay: Induction of cytotoxicity in SUDHL10 cells (Assay 6); type: cell-based
# Outline: (§2)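 Run alongside apoptosis measurements, this cytotoxicity readout used cells treated with compound for 5 h at 37 °C and quantified ATP-based luminescence with CellTiter-Glo.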
# AMO-1 cells = assay: Antiproliferation assay AMO-1 (Assay 7); type: cell-based; conditions: 72 h, CellTiter-Glo, read-out: Antiproli AMO-1 IC50 median
# Outline: as §1
# SUDHL5 cells [2] = assay: Induction of caspase-3/7 activity in SUDHL5 cells (Assay 4); type: cell-based; conditions: caspase-3/7 induction, 3 h, read-out: Caspase SUDHL5 EC50 (median)
# Outline: (§3)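 Read-out: Caspase-Glo 3/7 luminescence (1 h, 37 °C) after cells, plated overnight, were treated with compounds for 3 h at 37 °C. Signal corrected for cell-free medium background and expressed relative to DMSO control mean.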
# SUDHL5 cells [3] = assay: Antiproliferation assay SUDHL5 (Assay 7); type: cell-based; conditions: 72 h, CellTiter-Glo, read-out: Antiproli SUDHL5 IC50 (median)
# Outline: as §1
# SUDHL10 cells [4] = assay: Induction of caspase-3/7 activity in SUDHL10 cells (Assay 4); type: cell-based; conditions: caspase-3/7 induction, 3 h, read-out: Caspase SUDHL10 EC50 (median)
# Outline: as §3
# SUDHL5 cells [5] = assay: Induction of cytotoxicity in SUDHL5 cells (Assay 6); type: cell-based
# Outline: as §2
# [6] = 72 h, CellTiter-Glo; read-out: Antiproli HMC-1-8 IC50 median
# [7] = read-out: MCL-1 Assay IC50 (median)
# [8] = 5 h, CellTiter-Glo, read-out: Cytotox SUDHL10 IC50 (median)
# [9] = 5 h, CellTiter-Glo, read-out: Cytotox SUDHL5 IC50 (median)
# [10] = 72 h, CellTiter-Glo, read-out: Antiproli HMC-1-8 IC50 median
# [11] = Homo sapiens, SU-DHL10, 5 h, 5 h, CellTiter-Glo, read-out: Cytotox SUDHL10 IC50 (median)
# [12] = Homo sapiens, SU-DHL-5, 5 h, 5 h, CellTiter-Glo, read-out: Cytotox SUDHL5 IC50 (median)
# Chain of MCL-1 (Q07820 whole entry, looked up, stated change not applied, the tested form may be a part): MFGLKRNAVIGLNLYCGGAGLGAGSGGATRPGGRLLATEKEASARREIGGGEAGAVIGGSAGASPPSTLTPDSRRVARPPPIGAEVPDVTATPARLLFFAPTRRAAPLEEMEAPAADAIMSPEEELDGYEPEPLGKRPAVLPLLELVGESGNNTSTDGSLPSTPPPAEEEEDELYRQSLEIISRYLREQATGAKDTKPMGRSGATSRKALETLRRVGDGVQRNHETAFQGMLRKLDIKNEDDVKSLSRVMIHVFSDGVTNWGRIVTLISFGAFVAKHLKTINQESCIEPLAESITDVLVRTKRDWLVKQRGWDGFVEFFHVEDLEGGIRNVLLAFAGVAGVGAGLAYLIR
SMILES,IC50 (HMC-1-8 cells; [6]) [nM],IC50 (MCL-1; [7]) [nM],IC50 (SUDHL10 cells [1]; [8]) [nM],IC50 (AMO-1 cells) [nM],EC50 (SUDHL5 cells [2]) [nM],IC50 (SUDHL5 cells [3]) [nM],EC50 (SUDHL10 cells [4]) [nM],IC50 (SUDHL5 cells [5]; [9]) [nM],IC50 (MCL-1; MCL-1 Assay IC50 (median)) [nM],"EC50 (SUDHL5 cells [2]; Homo sapiens, SU-DHL-5, 3 h) [nM]","IC50 (SUDHL5 cells [3]; Homo sapiens, SU-DHL-5, 72 h) [nM]",IC50 (SUDHL10 cells [1]) [nM],IC50 (SUDHL5 cells [5]) [nM],IC50 (HMC-1-8 cells; [10]) [nM],IC50 (SUDHL10 cells [1]; [11]) [nM],"IC50 (AMO-1 cells; Homo sapiens, AMO1, 72 h) [nM]","EC50 (SUDHL10 cells [4]; Homo sapiens, SU-DHL10, 3 h) [nM]",IC50 (SUDHL5 cells [5]; [12]) [nM]
"CCc1c2c(nn1C)C1CCCN1CCCCn1c(C(=O)O)c(CCCOc3cccc4cc(F)ccc34)c3ccc(Cl)c-2c31 (single isomer, unassigned; (-)) [Example 106, (−)-17-chloro-1-ethyl-14-{3-[(6-fluoronaphthalen-1-yl)oxy]propyl}-2-methyl-3b,4,5,6,8,9,10,11-octahydro-2H-pyrazolo[3′,4′:8,9]pyrrolo[1′,2′:6,7][1,6]diazacycloundecino[10,11,1-hi]indole-13-carboxylic Acid]",20600,17,5700,4450,2700,2100,4800,3700,–,–,–,–,–,–,–,–,–,–
"CCc1c2c(nn1C)C1CCCN1CCCCn1c(C(=O)O)c(CCCOc3cccc4cc(F)ccc34)c3ccc(Cl)c-2c31 (racemic) [Example 104, (rac)-17-chloro-1-ethyl-14-{3-[(6-fluoronaphthalen-1-yl)oxy]propyl}-2-methyl-3b,4,5,6,8,9,10,11-octahydro-2H-pyrazolo[3′,4′:8,9]pyrrolo[1′,2′:6,7][1,6]diazacycloundecino[10,11,1-hi]indole-13-carboxylic Acid]",2630,–,430,543,–,–,360,340,0.88,330,550,–,–,–,–,–,–,–
"CCc1c2c(nn1C)C(CCCN1CCOCC1)OCCCCn1c(C(=O)O)c(CCCOc3cccc4cc(F)ccc34)c3ccc(Cl)c-2c31 (single isomer, unassigned; enantiomer 2) [Example 67, (−)-4-chloro-3-ethyl-7-{3-[(6-fluoronaphthalen-1-yl)oxy]propyl}-2-methyl-15-[3-(morpholin-4-yl)propyl]-2,10,11,12,13,15-hexahydropyrazolo[4′,3′:9,10][1,6]oxazacycloundecino[8,7,6-hi]indole-8-carboxylic Acid (Enantiomer 2)]",> 33000,–,4900,633,1600,2100,4400,2600,7.8,–,–,–,–,–,–,–,–,–
"CCc1c2c(nn1C)C(CCC1CCOCC1)N(C)CCCCn1c(C(=O)O)c(CCCOc3cccc4cc(F)ccc34)c3ccc(Cl)c-2c31 (centres unmarked) [Example 101, 4-chloro-3-ethyl-7-{3-[(6-fluoro-1-naphthyl)oxy]propyl}-2,14-dimethyl-15-[2-(tetrahydro-2H-pyran-4-yl)ethyl]-10,11,12,13,14,15-hexahydro-2H-pyrazolo[3′,4′:8,9][1,6]diazacycloundecino[10,11,1-hi]indole-8-carboxylic Acid]",1490,1.8,–,95.8,69,110,51,–,–,–,–,71,140,–,–,–,–,–
"CCc1c2c(nn1C)C(CCN(C)OC)OCCCCn1c(C(=O)O)c(CCCOc3cccc4cc(F)ccc34)c3ccc(Cl)c-2c31 (racemic) [Example 80, (rac)-4-chloro-3-ethyl-7-{3-[(6-fluoronaphthalen-1-yl)oxy]propyl}-(15-rac)-{2-[methoxy(methyl)amino]ethyl}-2-methyl-2,10,11,12,13,15-hexahydropyrazolo[4′,3′:9,10][1,6]oxazacycloundecino[8,7,6-hi]indole-8-carboxylic Acid]",–,–,–,–,–,–,–,–,3.5,140,170,–,–,1590,250,47.4,130,150
"CCc1c2c(nn1C)C(CCN1CC(F)C1)OCCCCn1c(C(=O)O)c(CCCOc3cccc4cc(F)ccc34)c3ccc(Cl)c-2c31 (racemic) [Example 108, (rac)-4-chloro-3-ethyl-15-[2-(rac)-(3-fluoroazetidin-1-yl)ethyl]-7-{3-[(6-fluoronaphthalen-1-yl)oxy]propyl}-2-methyl-2,10,11,12,13,15-hexahydropyrazolo[4′,3′:9,10][1,6]oxazacycloundecino[8,7,6-hi]indole-8-carboxylic Acid]",–,–,–,–,–,–,–,–,1.2,66,70,–,–,1870,130,51.8,67,84
"CCc1c2c(nn1C)C(CCN1CC(F)(F)C1)OCCCCn1c(C(=O)O)c(CCCOc3cccc4cc(F)ccc34)c3ccc(Cl)c-2c31 (racemic) [Example 77, (rac)-4-chloro-(15-rac)-[2-(3,3-difluoroazetidin-1-yl)ethyl]-3-ethyl-7-{3-[(6-fluoronaphthalen-1-yl)oxy]propyl}-2-methyl-2,10,11,12,13,15-hexahydropyrazolo[4′,3′:9,10][1,6]oxazacycloundecino[8,7,6-hi]indole-8-carboxylic Acid]",–,–,–,–,–,–,–,–,1.7,31,71,–,–,520,100,31.5,37,45
"Cc1c2c(nn1C)C(CCN1CCOCC1)OCCCCn1c(C(=O)O)c(CCCOc3cccc4ccccc34)c3cccc-2c31 (single isomer, unassigned; stereoisomer 1) [Example 5, 2,3-dimethyl-15-[2-(morpholin-4-yl)ethyl]-7-[3-(naphthalen-1-yloxy)propyl]-2,10,11,12,13,15-hexahydropyrazolo[4′,3′:9,10][1,6]oxazacycloundecino[8,7,6-hi]indole-8-carboxylic Acid (Stereoisomer 1)]",–,–,490,–,300,440,520,340,1.2,–,–,–,–,–,–,–,–,–
"Cc1c2c(nn1C)C(CCN1CCOCC1)OCCCCn1c(C(=O)O)c(CCCOc3cccc4ccccc34)c3cccc-2c31 (racemic) [Example 4, (rac)-2,3-dimethyl-15-[2-(morpholin-4-yl)ethyl]-7-[3-(naphthalen-1-yloxy)propyl]-2,10,11,12,13,15-hexahydropyrazolo[4′,3′:9,10][1,6]oxazacycloundecino[8,7,6-hi]indole-8-carboxylic Acid (Mixture of Stereoisomers)]",–,–,–,–,–,–,–,–,1.1,520,500,–,–,–,1100,–,990,550
